Ends that are not written are not given here.
Experiments:
[1] = Competitive inhibition of REOB-1 phage binding to Nd2O3 by polypeptides (IC50); conditions: 100 μg Nd2O3, REOB-1 phages at a titer of 108, 2 hr incubation; read-out: IC50 (μM)* of polypeptides competitively inhibiting the binding of REOB-1 phages to Nd2O3 nanoparticles
Protocol: 100 μg Nd2O3 was mixed with the polypeptides, RE-1, AP-1, RE-2, RE-3, RE-4, RE-5, RE-6, RE-7, RE-8, RE-9, RE-10, etc., respectively. To the mixture, REOB-1 phages at a titer of 108 were added. After 2 hr of incubation, the number of REOB-1 phages binding to Nd2O3 was measured. IC50 value indicated the relative activity of various polypeptides competitively inhibiting the binding of REOB-1 phages to Nd2O3 nanoparticles. The polypeptide RE-1 and its analogues had different binding ability to Nd2O3.

HeLa-LC3 cells [2] = experiment: RE-1 analogues blocking nanophosphor-induced autophagy (LC3 aggregates and vacuoles); assay type: cell-based; conditions: 24 hr; for inhibition of GFP-LC3 dot-like aggregation and cytoplasm vacuolation induced by UCN: 100 μg/mL UCN coated or mixed; for rank of ability after coating UCN to inhibit cell autophagy induced by UCN: 100 μg/mL
Protocol: UCN and UCP coated with RE-1 analogues RE-2, RE-3, or RE-5 were prepared as follows: 50 μg or 10 μg RE-1 analogues RE-2, RE-3, or RE-5 was mixed with 100 μg UCN or UCP, respectively, incubated at 37° C. for 2 hr, centrifuged at 12000 rpm, and then washed with water 3 times to remove the excess and unbound peptides. The resultant precipitate was resuspended in 100 μL water.
HeLa-LC3 cells were inoculated into a 96-well cell culture plate at a density of about 1-2×10^4 cells/well, and cultured overnight for further use. At first, the medium was replaced with fresh DMEM medium, and then 100 μg/mL UCN, UCN+RE-1, UCN+RE-2, UCN+RE-3, or UCN+RE-5 was added. An equal volume of PBS was used as blank. A mixture of 100 μg/mL UCN and 10 mg/mL PEG was used as negative control. A mixture of 100 mM trehalose and 50 μg RE-1 was used as positive control. After culturing for 24 hr, a fluorescence microscope was used to observe, image, and count.
HeLa-LC3 cells were inoculated into a 96-well cell culture plate at a density of about 1-2×10^4 cells/well, and cultured overnight for further use. At first, the medium was replaced with fresh DMEM medium, and then 100 μg/mL UCP, UCP+RE-1, UCP+RE-2, UCP+RE-3, or UCP+RE-5 was added. An equal volume of PBS was used as blank. After culturing for 24 hr, a fluorescence microscope was used to observe, image, and count.
The ability to induce cell autophagy was estimated by determining the numbers of LC3 aggregates and vacuoles.

HeLa cells [3] = experiment: Effect of RE-1 analogues on cytotoxicity induced by UCN, UCP (MTT, PI staining); assay type: cell-based; conditions: 1 mg/mL, 24 hr
Protocol: (§1) MTT cell vitality assay is performed as follows: The cells to which samples have been added are cultured for 24 hr, and then 0.5 mg/mL MTT solution is added and cultured for 4 hr. The MTT solution in the well is discharged, and then 200 μL DMSO is added, followed by gently shaking the plate on a shaking table for 10 min. Detection is performed using microplate reader (ELX800, purchased from BIO-TEK) at a wavelength of 570 nm.
(§2) PI staining assay is performed as follows: The cells to which samples have been added are cultured for 24 hr, and then to the culture Hoechst 33342 (10 mM, purchased from Sigma, USA, Catalog #: B2261) and PI (Propidium Iodide) (10 mM, purchased from Beyotime Biotechnology, Catalog #: ST511) are added for 10 min of staining. Then, the cells are detected and photographed under a fluorescence microscope (Olympus IX71, purchased from Olympus). The number of the cells counted by this assay was 500.
(§3) HeLa cells were inoculated into 96-well cell culturing plate at a density of about 1-2×10^4 cells/well, and cultured overnight for further use. At first, the medium was replaced with fresh DMEM medium, and then 1 mg/mL UCN, UCP, UCN+PEG (containing 10 mg PEG), UCN+RE-1, UCP, UCP+RE-1, UCN+RE-2, UCN+RE-3, UCN+RE-5, UCP+RE-2, UCP+RE-3, or UCP+RE-5 were added, respectively. After culturing for 24 hr, MTT cell viability assay and PI staining were performed to detect the mortality of the cells.

[4] = test system: LC3 type II in mice liver; experiment: Western blotting of LC3 in mice livers after tail vein injection; assay type: in vivo; conditions: UCP+AP-1, tail vein, 24 hr
Protocol: (§4) Western blotting is performed as follows: After an incubation of 24 h, the cells are collected and lysed with lysis buffer (purchased from Beyotime Biotechnology, China). The lysate is boiled in boiling water for 10 min, subjected to 15% SDS-PAGE, and then transferred to nylon membrane (purchased from Amersham Inc.) by a wet transfer. In the Western blotting, Anti-LC3 (Light Chain 3 Protein Antibody, purchased from Novus Inc., Catalog #: NB 100-2220) is used as primary antibody; GAPDH (purchased from Millipore Inc.) is used as internal reference; and Horseradish peroxidase (HRP) conjugated goat anti-rabbit IgG (H+L) (Goat Anti-Rabbit IgG (H+L), HRP Conjugate) (purchased from Promega Inc.) is used as secondary antibody.
(§5) Balb/c mice (purchased from SLAC Laboratory Animal (Shanghai, China), 6 weeks old, and weighed 20 g when used) were bred in a sterile housing, and then 300 μg (dosage: 15 mg/kg) UCN, UCN+PEG (containing 10 mg PEG), UCN+RE-1, UCP, UCP+RE-1, or UCP+AP-1 was injected through tail vein. An equal volume of normal saline was injected as a control. After 24 hr, the livers of the mice were removed and subjected to western blotting assay.

mice liver [5] = experiment: Autophagosome formation in mice livers by transmission electron microscope; assay type: in vivo, Balb/c mice; conditions: RE-1 with UCN, PEG with UCN, AP-1 with UCP
Protocol: as §5
(§6) The mice livers obtained as described in Example 21 were in situ fixed with 2.5% glutaral-dimethyl arsine buffer (pH 7.4) at 4° C. for 1 hr, then fixed with 2% osmium tetroxide at room temperature for 1 hr, and then dehydrated with ethanol gradients. Then, the cell samples were embedded into epoxy resin (EPON812). The embedded cell samples were cut into ultrathin slices, which were stained with uranyl acetate and lead citrate, and observed and imaged under a transmission electron microscope (JEOL-1230, JEOL, Japan).

mice liver [6] = experiment: Liver damage in mice livers (HE staining); assay type: in vivo, Balb/c mice; conditions: UCP+RE-1 or UCP+AP-1, tail vein, 24 hr
Protocol: as §5
as §6, with “in paraffin.” for “into epoxy resin (EPON812).”, “HE (hematoxylin-eosin),” for “uranyl acetate and lead citrate,”, “fluorescence microscope.” for “a transmission electron microscope (JEOL-1230, JEOL, Japan).”

LC3 II in HeLa cells [7] = experiment: Western blotting of LC3 in HeLa cells; assay type: cell-based; conditions: 100 μg/mL UCP+AP-1
Protocol: as §4
HeLa cells were inoculated into a 24-well cell culturing plate at a density of about 3-5×10^4 cells/well, and cultured overnight for further use. At first, the medium was replaced with fresh DMEM medium, and then 100 μg/mL UCN or UCN+RE-1 was added. An equal volume of PBS was used as blank. A mixture of 100 μg/mL UCN and 10 mg/mL PEG was used as negative control. 100 mM trehalose was used as positive control. Then, western blotting assay was performed.
HeLa cells were inoculated into a 24-well cell culturing plate at a density of about 3-5×10^4 cells/well, and cultured overnight for further use. At first, the medium was replaced with fresh DMEM medium, and then 100 μg/mL UCP or UCP+RE-1 was added. An equal volume of PBS was used as blank. A mixture of 100 μg/mL UCP+AP-1 and a mixture of 400 μg/mL TiO2+AP-1 were used as negative control. 400 μg/mL TiO2 was used as positive control. Then, western blotting assay was performed.

HeLa cells [8] = experiment: RE-1-RGD effect on cytotoxicity induced by UCN (MTT, PI staining); assay type: cell-based; conditions: 1 mg/mL RE-1-RGD-coated UCN, 24 hr, MTT and PI staining
Protocol: as §1, §2
as §3, with “UCN,” for “UCN, UCP, UCN+PEG (containing 10 mg PEG),”, “and UCN+RE-1-RGD” for “UCP, UCP+RE-1, UCN+RE-2, UCN+RE-3, UCN+RE-5, UCP+RE-2, UCP+RE-3, or UCP+RE-5”

HeLa cells [9] = experiment: Adherence of UCN coated with RE-1 or RE-1-RGD to HeLa cells; assay type: cell-based; conditions: 37° C., 2 hr, versus uncoated
Protocol: HeLa cells were cultured on a coverslip (22 mm×22 mm), which was then placed into a 6-well plate with the cells facing upward or downward, and the coverslip was supported by a sterilized glass cube (2 mm×2 mm×2 mm). Then, 4 mL of DMEM medium containing the rare-earth upconversion nanophosphors coated with RE-1 or RE-1-RGD or without any coating was slowly poured into the 6-well plate, such that the cells were fully immersed in the medium, and the coverslip was just located at the middle of the height of the liquid. The cells were placed into a cell incubator at 37° C. for 2 hr, and then washed with PBS 3 times. The UCNs adhered to the surfaces of the cells were observed under a fluorescence microscope (Olympus IX71, Olympus, Japan) equipped with a 980-nm infrared laser (MDL-980 nm 1 W, Changchun New Industries Optoelectronics Tech. Co., Ltd, China).

HeLa-LC3 cells [10] = experiment: RE-1-RGD effect on UCN-induced autophagy (LC3 dot-like aggregates and vacuoles); assay type: cell-based; conditions: 100 μg/mL RE-1-RGD-coated UCN, 24 hr
Protocol: UCN coated with RE-1-RGD was prepared as follows: 50 μg RE-1-RGD and 100 μg UCN were mixed, incubated at 37° C. for 2 hr, and then centrifuged at 12000 rpm. The resultant precipitate was washed with water for 3 times to remove the excess and unbound RE-1-RGD peptides. Then, the precipitate was resuspended in 100 μL water for further use.
HeLa-LC3 cells were inoculated into a 96-well cell culture plate at a density of about 1-2×10^4 cells/well, and cultured overnight for further use. At first, the medium was replaced with fresh DMEM medium, and then 100 μg/mL UCN, UCN+RE-1, and UCN+RE-1-RGD were added, respectively. An equal volume of PBS was used as blank. After culturing for 24 hr, LC3 dot-like aggregates and vacuoles in the cells were observed and imaged under a fluorescence microscope.

LC3 II in HeLa cells [11] = experiment: RE-1-RGD effect on UCN-induced autophagy (western blotting LC3 II); assay type: cell-based; conditions: 100 μg/mL RE-1-RGD-coated UCN
Protocol: as §4
HeLa cells were inoculated into 24-well cell culture plate at a density of about 3-5×10^4 cells/well, and cultured overnight for further use. At first, the medium was replaced with fresh DMEM medium, and then 100 μg/mL UCN, UCN+PEG (containing 10 mg PEG), UCN+RE-1, and UCN+RE-1-RGD were added, respectively. An equal volume of PBS was used as blank. 100 mM trehalose was used as positive control. Then, western blotting assay was performed.

AATARSPWICG [RE-4, RE-1 2C→A]
IC50 [1]: 270 ± 8.67 µM

ACAARSPWICG [RE-5, RE-1 3T→A]
IC50 [1]: 689 ± 8.38 µM | inhibition of GFP-LC3 dot-like aggregation and cytoplasm vacuolation induced by UCN (HeLa-LC3 cells [2]): did not inhibit | rank of ability after coating UCN to inhibit cell autophagy induced by UCN (HeLa-LC3 cells [2]): RE-1>RE-3>RE-5 | inhibitory effect of coating on cytotoxicity induced by UCN and UCP (HeLa cells [3]): RE-1>RE-3>RE-5

ACNATLPHQCG [AP-1, same terminal amino acids but irrelevant amino acids therebetween, reference compound]
IC50 [1]: > 5000 µM | inhibition of ability of UCP to induce autophagy in liver [4]: could not inhibit | inhibition of autophagosome formation induced by nanophosphors (UCN, UCP) in liver (mice liver [5]): did not | effect of coating on liver damage induced by UCP (mice liver [6]): showed no such effect | inhibition of ability of nanophosphor to induce cell autophagy by AP-1 (LC3 II in HeLa cells [7]): not for AP-1

ACTAASPWICG [RE-6, RE-1 5R→A]
IC50 [1]: 78.4 ± 7.07 µM

ACTARAPWICG [RE-7, RE-1 65→A as printed]
IC50 [1]: 83.9 ± 6.65 µM

ACTARSAWICG [RE-8, RE-1 7P→A]
IC50 [1]: 440 ± 8.48 µM

ACTARSPAICG [RE-9, RE-1 8W→A]
IC50 [1]: 86.7 ± 8.07 µM

ACTARSPWACG [RE-10, RE-1 9I→A]
IC50 [1]: 71.5 ± 5.1 µM

ACWPATRISCG [RE-3, order of 7 middle amino acids of RE-1 disrupted]
IC50 [1]: 64.3 ± 2.33 µM | inhibition of GFP-LC3 dot-like aggregation and cytoplasm vacuolation induced by UCN (HeLa-LC3 cells [2]): exhibited an inhibitory effect | reduction of GFP-LC3 dot-like aggregation induced by UCN (HeLa-LC3 cells [2]; 100 μg/mL UCN coated): 21% | reduction of cytoplasm vacuolation induced by UCN (HeLa-LC3 cells [2]; 100 μg/mL UCN coated): 50% | rank of ability after coating UCN to inhibit cell autophagy induced by UCN (HeLa-LC3 cells [2]): RE-1>RE-3>RE-5 | inhibitory effect of coating on cytotoxicity induced by UCN and UCP (HeLa cells [3]): RE-1>RE-3>RE-5

CRGDCGGACTARSPWICG [RE-1-RGD, RE-1 and tumor cell-targeting peptide RGD]
cell mortality versus group treated with UCN (HeLa cells [8]): significantly higher | number of coated upconversion nanophosphors adhered to the surface of the cells (HeLa cells [9]): significantly higher | LC3 dot-like aggregates and vacuoles in cells versus UCN group (HeLa-LC3 cells [10]): significantly increased | LC3 II in the cells (LC3 II in HeLa cells [11]): significantly increased

TARSPWI [RE-2, TARSPWI]
IC50 [1]: 1307 ± 6.5 µM | inhibition of GFP-LC3 dot-like aggregation and cytoplasm vacuolation induced by UCN (HeLa-LC3 cells [2]): did not inhibit | rank of ability after coating UCN to inhibit cell autophagy induced by UCN (HeLa-LC3 cells [2]): substantially no inhibitory effect | inhibitory effect of coating on cytotoxicity induced by UCN and UCP (HeLa cells [3]): nearly showed no inhibitory effect
